This note sets out measurements from patent US20190054098A1, “AGENTS AND METHODS USING THEREOF FOR THE PREVENTION AND TREATMENT OF STEM CELLS SENESCENCE” (ECOLE POLYTECHNIQUE FEDERALE DE LAUSANNE (EPFL), priority 2015, published 2019).

This test has as its system C2C12 myoblasts. As to the kind of experiment: Expression of UPRmt markers, prohibitins and cell cycle regulators in C2C12 myoblasts treated with TAP (FIG. 3). The settings on record: 50 μg/ml TAP, different treatment periods (FIG. 3). Format: cell-based. As to the method: Total RNA was extracted from MuSCs by sorting cells directly into TriPure RNA isolation reagent (Roche) or from cultured C2C12 myoblasts using TriPure reagent according to the product manual. Total RNA was transcribed to cDNA using QuantiTect Reverse Transcription Kit (Qiagen). Expression of selected genes was analyzed using the LightCycler480 system (Roche) and LightCycler® 480 SYBR Green I Master reagent (Roche). The acidic ribosomal protein 36b4 gene (ribosomal protein, large, P0, Rplp0) was used as housekeeping reference. C2C12 cells were lysed in a buffer composed of 50 mM Tris, 150 mM KCl, EDTA 1 mM, NP40 1%, nicotinamide 5 mM, sodium butyrate 1 mM and protease inhibitors cocktail (Roche) at pH 7.4. Proteins were separated by SDS-PAGE and transferred onto nitrocellulose membranes. Blocking and antibody incubations were performed in 3% BSA. The following primary antibodies were used: anti-cleavage caspase 3 (Cell Signalling); Anti-γH2AX (Millipore); anti-β-actin (Sigma). All secondary antibodies were from Jackson Immunoresearch. Antibody detection reactions were developed by enhanced chemiluminescence (Advansta, CA, USA) using x-ray films or imaged using the c300 imaging system (Azure Biosystems). The following primary antibodies were used: anti-HSP60 (Enzo Life Science); anti-PHB (Biolegend); anti-PHB2 (Santa Cruz); anti-CKD4 (Novus biologicals); anti-CCND1 (Santa Cruz); anti-CCND3 (Santa Cruz); anti-HSP90 (BD Biosciences); HSP70 (Abcam); anti-MT-CO1 (Biolegend); anti-ATP5A (Biolegend); anti-Grp78 (Abcam); and anti-CLPP (Sigma).

Consider `CS(=O)(=O)c1ccc([C@@H](O)[C@@H](CO)NC(=O)C(Cl)Cl)cc1` [thiamphenicol], for which the “UPR^mt induction” value is listed as “induction”, the “cell cycle gene expression / cell cycle regulators” value is listed as “induced”, the mitonuclear imbalance result is reported as “induces” and the prohibitins expression result was “induced”. Also, where the note is “listed as TAP”, the “UPR^mt induction” value was “induces” and the “cell cycle gene expression / cell cycle regulators” value was “induces”.
